US20070128217A1 (priority 2003, published 2007)

Key:
[1] = test system: control sera (pooled serum of ten healthy LUMC hospital workers; commercial negative donor pooled serum from the Dutch bloodbank); type: binding, human; set-up: Binding of Control serum LUMC to linear peptides / Binding of Control serum Blood-bank to linear peptides / Binding of Control serum LUMC to looped peptides / Binding of Control Serum Blood-Bank to Looped peptides / Binding of Control serum LUMC to linear peptides of the protein M of SARS-CoV Urbani / Binding of Control serum Blood-bank to linear peptides of the protein M of SARS-CoV Urbani / Binding of Control serum LUMC to looped peptides of the protein M of SARS-CoV Urbani / Binding of Control Serum Blood-Bank to Looped peptides of the protein M of SARS-CoV Urbani: unit not given here
[2] = test system: rabbit serum obtained by immunizing a rabbit with the SARS-CoV strain Frankfurt 1; type: binding; set-up: Binding of a rabbit serum to linear peptides / Binding of a rabbit serum to looped peptides / Rabbit serum linear peptides / Rabbit serum looped peptides / Binding of a rabbit serum to linear peptides of protein N of SARS-CoV Urbani (Rabbit serum linear peptides) / Binding of a rabbit serum to looped/cyclic peptides of protein N of SARS-CoV Urbani (Rabbit serum looped peptides): unit not given here
[3] = test system: recombinant human anti-SARS-CoV antibody 03-018; type: binding; set-up: Binding of antibody 03-018 to linear peptides of the N protein of SARS-CoV Urbani / Binding of antibody 03-018 to looped/cyclic peptides of the N protein of SARS-CoV Urbani: unit not given here
[4] = test system: antibodies in sera from SARS patients (sera 1a, 1b, 2, 6, 37, 62, London, SARS-yellow, SARS-green); type: binding, human; set-up: Binding of serum 6 to linear peptides of protein X1 of SARS-CoV Urbani / Binding of serum 37 to linear peptides of protein X1 of SARS-CoV Urbani / Binding of serum 6 to looped/cyclic peptide (PEPSCAN-ELISA) / Binding of serum 37 to looped/cyclic peptide (PEPSCAN-ELISA) / Binding of serum 37 to looped/cyclic peptides of protein X1 of SARS-CoV Urbani / Binding of serum 6 to linear peptides of protein X2 / Binding of serum 37 to linear peptides of protein X2 / Binding of serum 37 to looped/cyclic peptides of protein X2 of SARS-CoV Urbani / Binding of serum 6 to linear peptides of protein M of SARS-CoV Urbani / Binding of serum 37 to linear peptides of protein M of SARS-CoV Urbani / Binding of serum 6 to looped/cyclic peptides of protein M of SARS-CoV Urbani / Binding of serum 37 to looped/cyclic peptides of protein M of SARS-CoV Urbani / Binding of serum 6 to linear peptides of protein X3 of SARS-CoV Urbani / Binding of serum 37 to linear peptides of protein X3 of SARS-CoV Urbani / Binding of serum 37 to looped/cyclic peptides of protein X3 of SARS-CoV Urbani / Binding of serum 6 to linear peptides of protein X4 of SARS-CoV Urbani / Binding of serum 37 to linear peptides of protein X4 of SARS-CoV Urbani / Binding of serum 37 to looped/cyclic peptides of protein X4 of SARS-CoV Urbani / Binding of serum 6 to linear peptides of protein X5 of SARS-CoV Urbani / Binding of serum 37 to linear peptides of protein X5 of SARS-CoV Urbani / Binding of serum 37 to looped/cyclic peptides of protein X5 of SARS-CoV Urbani / Binding of serum 6 to linear peptides of protein N of SARS-CoV Urbani / Binding of serum 37 to linear peptides of protein N of SARS-CoV Urbani / Binding of serum 6 to linear peptide (PEPSCAN-ELISA) / Binding of serum 1a to looped/cyclic peptides of protein N of SARS-CoV Urbani / Binding of serum 1b to looped/cyclic peptides of protein N of SARS-CoV Urbani / Binding of serum 2 to looped/cyclic peptides of protein N of SARS-CoV Urbani / Binding of serum 6 to looped/cyclic peptides of protein N of SARS-CoV Urbani / Binding of serum 37 to looped/cyclic peptides of protein N of SARS-CoV Urbani / Binding of serum 62 to looped/cyclic peptides of protein N of SARS-CoV Urbani / Binding of serum London to looped/cyclic peptides of protein N of SARS-CoV Urbani / Binding of serum SARS-green to looped/cyclic peptides of protein N of SARS-CoV Urbani: unit not given here

Sequence	Binding of Control Serum Blood-Bank to Looped peptides [1]	Binding of Control serum Blood-bank to linear peptides [1]	Binding of Control serum LUMC to linear peptides [1]	Binding of Control serum LUMC to looped peptides [1]	Binding of a rabbit serum to linear peptides of protein N of SARS-CoV Urbani (Rabbit serum linear peptides) [2]	Binding of a rabbit serum to looped/cyclic peptides of protein N of SARS-CoV Urbani (Rabbit serum looped peptides) [2]	Binding of antibody 03-018 to linear peptides of the N protein of SARS-CoV Urbani [3]	Binding of antibody 03-018 to looped/cyclic peptides of the N protein of SARS-CoV Urbani [3]	Binding of serum 1a to looped/cyclic peptides of protein N of SARS-CoV Urbani [4]	Binding of serum 1b to looped/cyclic peptides of protein N of SARS-CoV Urbani [4]	Binding of serum 2 to looped/cyclic peptides of protein N of SARS-CoV Urbani [4]	Binding of serum 6 to looped/cyclic peptides of protein N of SARS-CoV Urbani [4]	Binding of serum 37 to looped/cyclic peptides of protein N of SARS-CoV Urbani [4]	Binding of serum 62 to looped/cyclic peptides of protein N of SARS-CoV Urbani [4]	Binding of serum London to looped/cyclic peptides of protein N of SARS-CoV Urbani [4]	Binding of serum SARS-green to looped/cyclic peptides of protein N of SARS-CoV Urbani [4]	Binding of serum SARS-yellow to looped/cyclic peptides of protein N of SARS-CoV Urbani [4]	Binding of serum 1a to linear peptides of protein N of SARS-CoV Urbani [4]	Binding of serum 1b to linear peptides of protein N of SARS-CoV Urbani [4]	Binding of serum 2 to linear peptides of protein N of SARS-CoV Urbani [4]	other results
GQQQQGQTVTKKSAA	0.5	0.9	0.9	0.5	0.2	0.1	0.1	0.2	0.2	0.1	0.3	0.1	0.4	0.4	0.3	0.1	0.1	–	–	–	Binding of serum 1a to linear peptide (PEPSCAN-ELISA) [4]: 0.3; Binding of serum 1b to linear peptide (PEPSCAN-ELISA) [4]: 0.1; Binding of serum 2 to linear peptide (PEPSCAN-ELISA) [4]: 0.3; Binding of serum 6 to linear peptide (PEPSCAN-ELISA) [4]: 0.3; Binding of serum 37 to linear peptide (PEPSCAN-ELISA) [4]: 0.8; Binding of serum 62 to linear peptide (PEPSCAN-ELISA) [4]: 0.8; Binding of serum London to linear peptide (PEPSCAN-ELISA) [4]: 0.5; Binding of serum SARS-green to linear peptide (PEPSCAN-ELISA) [4]: 0.1; Binding of serum SARS-yellow to linear peptide (PEPSCAN-ELISA) [4]: 0.5
WYFYYLGTGPEASLP	0.6	0.7	0.6	0.6	0.1	0.3	0.1	0.2	0.4	0.3	0.4	0.3	0.7	0.5	0.4	0.4	0.5	0.3	0.2	0.3	Binding of serum 6 to linear peptides of protein N of SARS-CoV Urbani [4]: 0.2; Binding of serum 37 to linear peptides of protein N of SARS-CoV Urbani [4]: 0.9; Binding of serum 62 to linear peptides of protein N of SARS-CoV Urbani [4]: 0.8; Binding of serum London to linear peptides of protein N of SARS-CoV Urbani [4]: 0.5; Binding of serum SARS-green to linear peptides of protein N of SARS-CoV Urbani [4]: 0.3; Binding of serum SARS-yellow to linear peptides of protein N of SARS-CoV Urbani [4]: 0.7
QFAPSASAFFGMSRI	–	–	–	–	0.1	0.4	0.1	0.3	0.4	0.2	0.4	0.2	0.6	0.7	0.4	0.5	0.3	0.2	0.1	0.1	Control Serum Blood-Bank Looped peptides [1]: 0.6; Control serum Blood-bank linear peptides [1]: 0.7; Control serum LUMC linear peptides [1]: 0.5; Control serum LUMC looped peptides [1]: 0.6; Binding of serum 6 to linear peptides of protein N of SARS-CoV Urbani [4]: 0.1; Binding of serum 37 to linear peptides of protein N of SARS-CoV Urbani [4]: 0.4; Binding of serum 62 to linear peptides of protein N of SARS-CoV Urbani [4]: 0.4; Binding of serum London to linear peptides of protein N of SARS-CoV Urbani [4]: 0.4; Binding of serum SARS-green to linear peptides of protein N of SARS-CoV Urbani [4]: 0.1; Binding of serum SARS-yellow to linear peptides of protein N of SARS-CoV Urbani [4]: 0.5
LLDRLNQLESKVSGK	0.3	0.7	0.6	0.2	0.6	0.1	0.1	0.2	0.2	0.1	0.2	0.1	0.4	0.4	0.3	0.0	0.1	–	–	–	Binding of serum 1a to linear peptide (PEPSCAN-ELISA) [4]: 0.2; Binding of serum 1b to linear peptide (PEPSCAN-ELISA) [4]: 0.1; Binding of serum 2 to linear peptide (PEPSCAN-ELISA) [4]: 0.3; Binding of serum 6 to linear peptide (PEPSCAN-ELISA) [4]: 0.2; Binding of serum 37 to linear peptide (PEPSCAN-ELISA) [4]: 0.7; Binding of serum 62 to linear peptide (PEPSCAN-ELISA) [4]: 0.6; Binding of serum London to linear peptide (PEPSCAN-ELISA) [4]: 0.5; Binding of serum SARS-green to linear peptide (PEPSCAN-ELISA) [4]: 0.4; Binding of serum SARS-yellow to linear peptide (PEPSCAN-ELISA) [4]: 0.7
PQSNQRSAPRITFGG	0.8	0.5	0.6	0.7	–	–	–	–	0.5	0.3	0.5	0.5	0.8	0.7	0.5	0.4	0.6	0.3	0.2	0.2	Recognition of the peptide by the rabbit serum [2]: also recognized; Recognition of the peptide by antibody 03-018 [3]: recognized; Binding of serum 6 to linear peptides of protein N of SARS-CoV Urbani [4]: 0.1; Binding of serum 37 to linear peptides of protein N of SARS-CoV Urbani [4]: 0.6; Binding of serum 62 to linear peptides of protein N of SARS-CoV Urbani [4]: 0.6; Binding of serum London to linear peptides of protein N of SARS-CoV Urbani [4]: 0.4; Binding of serum SARS-green to linear peptides of protein N of SARS-CoV Urbani [4]: 0.3; Binding of serum SARS-yellow to linear peptides of protein N of SARS-CoV Urbani [4]: 0.5
